Laboratory results from patent US20250179073A1, “TRICYCLIC HETEROCYCLE COMPOUNDS AS IAP ANTAGONISTS” (Ascentage Pharma (Suzhou) Co., Ltd., priority 2022, published 2025).

System: MDA-MB-231 cells
Experiment: Cell proliferation assay (CellTiter-Glo), MDA-MB-231
Format: cell-based
Settings: Homo sapiens, MDA-MB-231, 72 h, 72 h treatment, Celltiter-Glo luminescence
How it was run: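 Compounds tested over ten concentrations ([…]) for 72 h on EVSA-T cells in MEM/10% FBS and MDA-MB-231 cells in RPMI-1640/10% FBS, seeded at 10000/well. Luminescent CellTiter-Glo readout; IC50 fitted after normalisation to controls.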

Structure (SMILES) | IC50 [nM]
Cc1nc(CO)c2c(Cc3ccc(F)cc3)cc3c(n12)C(C)(C)CN3C(=O)CN1C[C@@H](C)NC[C@@H]1CN1CCOC[C@H]1C [Compound 125, 1-(4-(4-fluorobenzyl)-3-(hydroxymethyl)-1,8,8-trimethyl-7,8-dihydro-6H-imidazo[1,5-a]pyrrolo[2,3-e]pyridin-6-yl)-2-((2R,5R)-5-methyl-2-(((R)-3-methylmorpholino)methyl)piperazin-1-yl)ethan-1-one] | 200
Cc1nc(C)n2c3c(cc(Cc4ccc(F)cc4)c12)N(C(=O)CN1C[C@@H](C)NC[C@@H]1CN1CCOC[C@H]1C)CC3(C)C [Compound 124, 1-(4-(4-fluorobenzyl)-1,3,8,8-tetramethyl-7,8-dihydro-6H-imidazo[1,5-a]pyrrolo[2,3-e]pyridin-6-yl)-2-((2R,5R)-5-methyl-2-(((R)-3-methylmorpholino)methyl)piperazin-1-yl)ethan-1-one] | 290
C[C@@H]1CN(CC(=O)N2CC(C)(C)c3c2cc(Cc2ccc(F)cc2)c2nc(C(F)(F)F)cn32)[C@@H](CN2CCN(S(C)(=O)=O)C[C@H]2C)CN1 [Compound 178, 1-(4-(4-fluorobenzyl)-8,8-dimethyl-2-(trifluoromethyl)-7,8-dihydro-6H-imidazo[1,2-a]pyrrolo[2,3-e]pyridin-6-yl)-2-((2R,5R)-5-methyl-2-(((R)-2-methyl-4-(methylsulfonyl)piperazin-1-yl)methyl)piperazin-1-yl)ethan-1-one] | 490
C[C@@H]1CN(CC(=O)N2CC(C)(C)c3c2cc(Cc2ccc(F)cc2)c2nc(N4CC(C)(O)C4)nn32)[C@@H](CN2CCOC[C@H]2C)CN1 [Compound 170, 1-(4-(4-fluorobenzyl)-2-(3-hydroxy-3-methylazetidin-1-yl)-8,8-dimethyl-7,8-dihydro-6H-pyrrolo[2,3-e][1,2,4]triazolo[1,5-a]pyridin-6-yl)-2-((2R,5R)-5-methyl-2-(((R)-3-methylmorpholino)methyl)piperazin-1-yl)ethan-1-one] | 99
C[C@@H]1CN(CC(=O)N2CC(C)(C)c3c2cc(Cc2ccc(F)cc2)c2nn(CC(C)(C)O)c(=O)n32)[C@@H](CN2C3COCC2C3)CN1 [Compound 289, 6-(2-((2R,5R)-2-((3-oxa-6-azabicyclo[3.1.1]heptan-6-yl)methyl)-5-methylpiperazin-1-yl)acetyl)-4-(4-fluorobenzyl)-2-(2-hydroxy-2-methylpropyl)-8,8-dimethyl-2,6,7,8-tetrahydro-1H-pyrrolo[2,3-e][1,2,4]triazolo[4,3-a]pyridin-1-one] | 1700
C[C@@H]1CN(CC(=O)N2CC(C)(C)c3c2cc(Cc2ccc(F)cc2)c2nc(C(F)(F)F)cn32)[C@@H](CN2CCOCC2(C)C)CN1 [Compound 146, 2-((2R,5R)-2-((3,3-dimethylmorpholino)methyl)-5-methylpiperazin-1-yl)-1-(4-(4-fluorobenzyl)-8,8-dimethyl-2-(trifluoromethyl)-7,8-dihydro-6H-imidazo[1,2-a]pyrrolo[2,3-e]pyridin-6-yl)ethan-1-one] | 270
C[C@@H]1CN(CC(=O)N2CC(C)(C)c3c2cc(N2CCOc4cc(F)ccc42)c2ncnn32)[C@@H](CN2CCOC[C@H]2C)CN1 [Compound 169, 1-(4-(7-fluoro-2,3-dihydro-4H-benzo[b][1,4]oxazin-4-yl)-8,8-dimethyl-7,8-dihydro-6H-pyrrolo[2,3-e][1,2,4]triazolo[1,5-a]pyridin-6-yl)-2-((2R,5R)-5-methyl-2-(((R)-3-methylmorpholino)methyl)piperazin-1-yl)ethan-1-one] | 980
C[C@@H]1CN(CC(=O)N2CC(C)(C)c3c2cc(Cc2ccc(F)cc2)c2nc(N(S(C)(=O)=O)S(C)(=O)=O)nn32)[C@@H](CN2CCOC[C@H]2C)CN1 [Example 16, N-(4-(4-fluorobenzyl)-8,8-dimethyl-6-(2-((2R,5R)-5-methyl-2-(((R)-3-methylmorpholino)methyl)piperazin-1-yl)acetyl)-7,8-dihydro-6H-pyrrolo[2,3-e][1,2,4]triazolo[1,5-a]pyridin-2-yl)-N-(methylsulfonyl)methanesulfonamide] | 6260
C[C@@H]1CN(CC(=O)N2CC(C)(C)c3c2cc(Cc2ccc(F)cc2)c2nc(CS(C)(=O)=O)nn32)[C@@H](CN2CCOC[C@H]2C)CN1 [Compound 141, 1-(4-(4-fluorobenzyl)-8,8-dimethyl-2-((methylsulfonyl)methyl)-7,8-dihydro-6H-pyrrolo[2,3-e][1,2,4]triazolo[1,5-a]pyridin-6-yl)-2-((2R,5R)-5-methyl-2-(((R)-3-methylmorpholino)methyl)piperazin-1-yl)ethan-1-one] | 310
C[C@@H]1CN(CC(=O)N2CC(C)(C)c3c2cc(Cc2ccc(F)cc2)c2nn(CC(C)(C)O)c(=O)n32)[C@@H](CN2CC3CCC2CO3)CN1 (stereo partly drawn) [Compound 287, 6-(2-((2R,5R)-2-((2-oxa-5-azabicyclo[2.2.2]octan-5-yl)methyl)-5-methylpiperazin-1-yl)acetyl)-4-(4-fluorobenzyl)-2-(2-hydroxy-2-methylpropyl)-8,8-dimethyl-2,6,7,8-tetrahydro-1H-pyrrolo[2,3-e][1,2,4]triazolo[4,3-a]pyridin-1-one] | 480
C[C@@H]1CN(CC(=O)N2CC(C)(C)c3c2cc(Sc2ccc(F)cn2)c2ncnn32)[C@@H](CN2CCOC[C@H]2C)CN1 [Compound 211, 1-(4-((5-fluoropyridin-2-yl)thio)-8,8-dimethyl-7,8-dihydro-6H-pyrrolo[2,3-e][1,2,4]triazolo[1,5-a]pyridin-6-yl)-2-((2R,5R)-5-methyl-2-(((R)-3-methylmorpholino)methyl)piperazin-1-yl)ethan-1-one] | 150
C[C@@H]1CN(CC(=O)N2CC(C)(C)c3c2cc(Cc2c(F)cc(F)cc2F)c2nncn32)[C@@H](CN2CCOC[C@H]2C)CN1 [Compound 164, 1-(8,8-dimethyl-4-(2,4,6-trifluorobenzyl)-7,8-dihydro-6H-pyrrolo[2,3-e][1,2,4]triazolo[4,3-a]pyridin-6-yl)-2-((2R,5R)-5-methyl-2-(((R)-3-methylmorpholino)methyl)piperazin-1-yl)ethan-1-one] | 430
C[C@@H]1CN(CC(=O)N2CC(C)(C)c3c2cc(Cc2ccc(F)cc2)c2nc(S(C)(=O)=O)nn32)[C@@H](CN2CCOC[C@H]2C)CN1 [Compound 200, 1-(4-(4-fluorobenzyl)-8,8-dimethyl-2-(methylsulfonyl)-7,8-dihydro-6H-pyrrolo[2,3-e][1,2,4]triazolo[1,5-a]pyridin-6-yl)-2-((2R,5R)-5-methyl-2-(((R)-3-methylmorpholino)methyl)piperazin-1-yl)ethan-1-one] | 70
CC(C)c1nc2c(Cc3ccc(F)cc3)cc3c(n2n1)C(C)(C)CN3C(=O)CN1C[C@@H](C)NC[C@@H]1CN1CCOC[C@H]1C [Compound 171, 1-(4-(4-fluorobenzyl)-2-isopropyl-8,8-dimethyl-7,8-dihydro-6H-pyrrolo[2,3-e][1,2,4]triazolo[1,5-a]pyridin-6-yl)-2-((2R,5R)-5-methyl-2-(((R)-3-methylmorpholino)methyl)piperazin-1-yl)ethan-1-one] | 95
C[C@@H]1CN(CC(=O)N2CC(C)(C)c3c2cc(Cc2ccc(F)cc2)c2ncnn32)[C@@H](CN2CCN(C)C(=O)[C@H]2C)CN1 [Compound 205, (R)-4-(((2R,5R)-1-(2-(4-(4-fluorobenzyl)-8,8-dimethyl-7,8-dihydro-6H-pyrrolo[2,3-e][1,2,4]triazolo[1,5-a]pyridin-6-yl)-2-oxoethyl)-5-methylpiperazin-2-yl)methyl)-1,3-dimethylpiperazin-2-one] | 7080
